Literature values as cited in patent publication US5317003A, “Herbicidal compositions comprising glyphosate salts and alkoxylated quaternary amine surfactants” (Monsanto Company, priority 1992, dated 1994).

O=C(O)CNCP(=O)(O)O [N-phosphonomethylglycine]
solubility in water: relatively insoluble
